Laboratory results reported in ChEMBL document CHEMBL1149228, “Analysis of structure-activity relationships for the 'B-region' of N-(3-acyloxy-2-benzylpropyl)-N(')-[4-(methylsulfonylamino)benzyl]thiourea analogues as vanilloid receptor antagonists: discovery of an N-hydroxythiourea analogue with potent analgesic activity” (Bioorg Med Chem Lett, 2004).

How the values were obtained:
[1] = biological target: T1, Transient receptor potential cation channel subfamily V member 1 (Rattus norvegicus, UniProt O35433); assay: In vitro antagonist effect against 50 nM capsaicin-induced 45 [Ca2+] influx in vanilloid receptor expressing CHO cells (ineffective); format: functional, cell-based
[2] = biological target: T1, Transient receptor potential cation channel subfamily V member 1; assay: Agonist effect on 45 [Ca2+] influx in vanilloid receptor expressing CHO cells relative to maximal capsaicin (300 nM) response (ineffective); format: functional, cell-based
[3] = biological target: T1, Transient receptor potential cation channel subfamily V member 1; assay: Binding affinity towards rat vanilloid receptor subtype 1 expressed in CHO cells by [3H]RTX displacement.; format: cell-based
[4] = biological target: T1, Transient receptor potential cation channel subfamily V member 1; assay: In vitro antagonist effect against 50 nM capsaicin-induced 45 [Ca2+] influx in vanilloid receptor expressing CHO cells; format: functional, cell-based
[5] = biological target: Transient receptor potential cation channel subfamily V member 1 (Rattus norvegicus) (UniProt O35433); assay: Inhibition of […] nM capsaicin-induced 45 [Ca2+] influx in vanilloid receptor expressing CHO cells; format: functional, cell-based
[6] = biological target: Transient receptor potential cation channel subfamily V member 1 (Rattus norvegicus) (UniProt O35433); assay: Agonist-induced 45 [Ca2+] influx relative to 300 nM capsaicin in vanilloid receptor expressing CHO cells
[7] = biological target: T1, Transient receptor potential cation channel subfamily V member 1; assay: Agonist effect on 45 [Ca2+] influx in vanilloid receptor expressing CHO cells relative to maximal capsaicin (300 nM) response, weak effect at 30 µM
[8] = biological target: T1, Transient receptor potential cation channel subfamily V member 1; assay: Agonist effect on 45 [Ca2+] influx in vanilloid receptor expressing CHO cells relative to maximal capsaicin (300 nM) response; format: functional, cell-based
[9] = biological target: Transient receptor potential cation channel subfamily V member 1 (Rattus norvegicus) (UniProt O35433); assay: Inhibition of […] nM capsaicin-induced 45 [Ca2+] uptake in vanilloid receptor expressing CHO cells; format: functional, cell-based

T1 sequence (O35433 whole entry): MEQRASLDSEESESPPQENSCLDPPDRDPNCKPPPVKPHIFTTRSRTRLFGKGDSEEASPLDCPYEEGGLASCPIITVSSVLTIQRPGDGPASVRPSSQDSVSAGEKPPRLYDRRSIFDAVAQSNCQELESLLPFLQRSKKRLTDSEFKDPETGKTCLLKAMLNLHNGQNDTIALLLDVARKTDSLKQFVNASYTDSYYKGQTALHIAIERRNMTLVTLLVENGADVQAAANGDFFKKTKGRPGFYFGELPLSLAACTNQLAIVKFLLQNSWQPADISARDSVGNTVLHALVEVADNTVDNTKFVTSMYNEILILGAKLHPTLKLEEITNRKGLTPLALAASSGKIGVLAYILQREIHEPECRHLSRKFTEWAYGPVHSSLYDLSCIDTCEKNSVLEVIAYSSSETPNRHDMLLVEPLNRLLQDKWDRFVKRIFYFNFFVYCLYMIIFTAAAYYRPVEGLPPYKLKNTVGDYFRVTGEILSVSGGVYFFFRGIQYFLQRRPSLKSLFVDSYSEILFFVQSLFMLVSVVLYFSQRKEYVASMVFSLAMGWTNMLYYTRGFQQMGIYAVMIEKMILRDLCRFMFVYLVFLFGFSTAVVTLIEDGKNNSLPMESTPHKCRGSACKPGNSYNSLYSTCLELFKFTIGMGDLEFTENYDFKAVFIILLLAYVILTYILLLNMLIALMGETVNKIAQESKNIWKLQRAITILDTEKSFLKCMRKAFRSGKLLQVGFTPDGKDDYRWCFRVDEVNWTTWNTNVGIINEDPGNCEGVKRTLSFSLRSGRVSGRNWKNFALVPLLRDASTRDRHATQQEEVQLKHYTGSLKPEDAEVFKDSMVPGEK
Sequence of Transient receptor potential cation channel subfamily V member 1 (Rattus norvegicus) (O35433 whole entry): as above

Row | SMILES | IC50 [1] | Ki [3] | IC50 [4] | agonist efficacy [6] | EC50 ([7]; cho) | also measured
1 | COc1cc(C/N=C(\S)NCC(COC(=O)C(C)(C)C)Cc2ccc(C)c(C)c2)ccc1NS(C)(=O)=O (centres undefined) | Not Active | – | – | – | – | –
2 | Cc1ccc(CC(COC(=O)C(C)(C)C)CN(O)/C(S)=N/Cc2ccc(NS(C)(=O)=O)c(F)c2)cc1C (centres undefined) | – | – | – | – | – | EC50 [2]: Not Active
3 | Cc1ccc(CC(COC(=O)Cc2ccc(NS(C)(=O)=O)cc2)COC(=O)C(C)(C)C)cc1C (centres undefined) | – | 1980 nM | 3600 nM | – | – | EC50 [2]: Not Active
4 | Cc1ccc(CC(CNC(=O)Cc2ccc(NS(C)(=O)=O)c(F)c2)COC(=O)C(C)(C)C)cc1C (centres undefined) | – | – | – | 10% | Partially active | inhibition [5]: 65%
5 | Cc1ccc(CC(CNC(=S)N(O)Cc2ccc(NS(C)(=O)=O)cc2)COC(=O)C(C)(C)C)cc1C (centres undefined) | – | – | 331 nM | 12% | Partially active | –
6 | Cc1ccc(CC(COC(=O)C(C)(C)C)CN(O)/C(S)=N/Cc2ccc(NS(C)(=O)=O)cc2Cl)cc1C (centres undefined) | – | 220 nM | 757 nM | – | – | EC50 [2]: Not Active
7 | Cc1ccc(CC(COC(=O)C(C)(C)C)CN(O)/C(S)=N/Cc2ccc(NS(C)(=O)=O)cc2F)cc1C (centres undefined) | Not Active | – | – | – | Partially active | –
8 | Cc1ccc(CC(CNC(=S)NCc2ccc(NS(C)(=O)=O)c(F)c2)COC(=O)C(C)(C)C)cc1C (centres undefined) | – | – | 7.8 nM | – | – | EC50 [2]: Not Active
9 | COc1cc(CO/C(S)=N/CC(COC(=O)C(C)(C)C)Cc2ccc(C)c(C)c2)ccc1NS(C)(=O)=O (centres undefined) | Not Active | 199 nM | – | – | – | EC50 ([7]; read-out: EC50): 373 nM
10 | Cc1ccc(CC(CNC(=S)N(O)Cc2ccc(NS(C)(=O)=O)c(F)c2)COC(=O)C(C)(C)C)cc1C (centres undefined) | Not Active | – | – | – | Partially active | –
11 | CC(C)(C)C(=O)OCC(CNC(=S)NCc1ccc(NS(C)(=O)=O)c(F)c1)Cc1ccc(C(C)(C)C)cc1 (centres undefined) | – | 22.6 nM | 52 nM | 5% | Partially active | –
12 | Cc1ccc(CC(CNC(=O)Cc2ccc(NS(C)(=O)=O)cc2)COC(=O)C(C)(C)C)cc1C (centres undefined) | – | 500 nM | 460 nM | 5.6% | Partially active | –
13 | COc1cc(CC(=O)NCC(COC(=O)C(C)(C)C)Cc2ccc(C)c(C)c2)ccc1NS(C)(=O)=O (centres undefined) | Not Active | 430 nM | – | – | – | EC50 [8]: 244 nM
14 | Cc1ccc(CC(COC(=O)C(C)(C)C)CN(O)/C(S)=N/Cc2ccc(NS(C)(=O)=O)cc2)cc1C (centres undefined) | – | – | – | 12% | Partially active | –
15 | Cc1ccc(CC(CN/C(S)=N/Cc2ccc(NS(C)(=O)=O)cc2)COC(=O)C(C)(C)C)cc1C (centres undefined) | – | – | 67 nM | – | Partially active | –
16 | CC(C)(C)C(=O)OCC(CNC(=O)Cc1ccc(NS(C)(=O)=O)c(F)c1)Cc1ccc(C(C)(C)C)cc1 (centres undefined) | – | 74 nM | 440 nM | 7% | Partially active | inhibition [5]: 56%
17 | CC(C)(C)C(=O)OCC(Cc1ccc(C(C)(C)C)cc1)CN(O)/C(S)=N/Cc1ccc(NS(C)(=O)=O)c(F)c1 (centres undefined) | – | 405 nM | 10100 nM | 13% | Partially active | –
18 | COc1cc(C/N=C(\S)N(O)CC(COC(=O)C(C)(C)C)Cc2ccc(C)c(C)c2)ccc1NS(C)(=O)=O (centres undefined) | Not Active | 396 nM | – | – | – | EC50 [8]: 809 nM
19 | Cc1ccc(CC(CNC(=S)OCc2ccc(NS(C)(=O)=O)c(F)c2)COC(=O)C(C)(C)C)cc1C (centres undefined) | – | 210 nM | 170 nM | 7.5% | Partially active | –
20 | Cc1ccc(CC(CNC(=S)OCc2ccc(NS(C)(=O)=O)cc2)COC(=O)C(C)(C)C)cc1C (centres undefined) | – | 336 nM | 440 nM | 11% | Partially active | inhibition [9]: 79%
